Common to all, as to assay type: functional, cell-based
The nature of test [1]: Cytotoxicity against human SKBR cells after 4 days by MTT assay. Particulars: 96 h. In general terms: Tetrazolium assays rely on reduction of a dye to a coloured formazan, in cell work by metabolically active cells.
In another test the test system is MDA-MB-231. The test is described as follows: Cytotoxicity against human MDA-MB-231 cells after 4 days by MTT assay. Particulars: MDA-MB-231, 96 h.
In another test the test system is A-375. The test is described as follows: Cytotoxicity against human A375 cells after 4 days by MTT assay. Particulars: A-375, 96 h.
Another test deals with T47D. The test is described as follows: Cytotoxicity against human T47D cells after 4 days by MTT assay. Particulars: 96 h.
For the next test, the system named is Raji. Kind of test: Cytotoxicity against human Raji cells after 4 days by MTT assay. The note with it: 96 h.
In the next test the test system is MCF7. The test is described as follows: Cytotoxicity against human MCF7 cells after 4 days by MTT assay. Particulars: MCF7, 96 h.

Some results are limits rather than exact numbers.

This passage reports EC50 results from ChEMBL document CHEMBL3621171, “Synthesis and evaluation of 8,4'-dideshydroxy-leinamycin revealing new insights into the structure-activity relationship of the anticancer natural product leinamycin” (Bioorg Med Chem Lett, 2015).

One may read the EC50 as the concentration needed to bring the measured effect to its halfway point. Read a high EC50 as weaker potency. On to `C/C1=C\CC(=O)/C=C/C=C\c2csc(n2)[C@@H](C)NC(=O)C[C@]2(CC1)[C@@H](C)C(=O)S[S+]2[O-]` (stereo not given in full), for which the EC50 in test [1] was 251 nM; in the test on MDA-MB-231, 71.4 nM; with A-375, 12.5 nM; in the test on T47D, 196 nM; in the test on Raji, 8.21 nM; in the test with MCF7, 275 nM.

Consider `C/C1=C\CC(=O)/C=C/C=C\c2csc(n2)[C@@H](C)NC(=O)C[C@@]2(CC1)SSC(=O)[C@@H]2C`, for which the concentration giving a half-maximal response (EC50) in test [1] is greater than 10000 nM; with MDA-MB-231 it was greater than 10000 nM; in the test with A-375, greater than 10000 nM; in the test with T47D, greater than 10000 nM; in the test with Raji, 48.7 nM; in the test on MCF7, greater than 10000 nM.

For the compound `C/C1=C\CC(=O)/C=C/C=C\c2csc(n2)[C@@H](C)NC(=O)C[C@@](S)([C@@H](C)C(=O)O)CC1`, the EC50 (in test [1]; in the test with MDA-MB-231; in the test with A-375; in the test with T47D; with Raji; with MCF7) was greater than 10000 nM throughout.

For `C/C1=C\[C@@H](O)C(=O)/C=C/C=C\c2csc(n2)[C@@H](C)NC(=O)C[C@@]2(CC1)[S+]([O-])SC(=O)[C@]2(C)O` (stereo not given in full) [LEINAMYCIN], the EC50 in test [1] came out at 52.3 nM; with MDA-MB-231, 8.99 nM; in the test with A-375 it was 4.69 nM; with T47D, 15.2 nM; in the test on Raji, 6.29 nM; in the test on MCF7, 42.4 nM.

For `C/C1=C\CC(=O)/C=C/C=C\c2csc(n2)[C@@H](C)NC(=O)C[C@@]2(CC1)SC(=O)[C@@H]2C`, the half-maximal effective concentration (EC50) was 7370 nM in test [1]; 1950 nM in the test with MDA-MB-231; greater than 10000 nM in the test with A-375; greater than 10000 nM with T47D; greater than 10000 nM with Raji; 8560 nM in the test on MCF7.
